From ChEMBL document CHEMBL1138859, “Synthesis and Src kinase inhibitory activity of a series of 4-[(2,4-dichloro-5-methoxyphenyl)amino]-7-furyl-3-quinolinecarbonitriles” (J Med Chem, 2006)
Values after ≈ are worked out from the molar mass of the structure shown.

Columns and labels:
[1] = target: T1, 3-phosphoinositide-dependent protein kinase 1 (Homo sapiens, UniProt O15530); assay: Inhibitory activity against PDK1
T1 sequence (O15530 whole entry): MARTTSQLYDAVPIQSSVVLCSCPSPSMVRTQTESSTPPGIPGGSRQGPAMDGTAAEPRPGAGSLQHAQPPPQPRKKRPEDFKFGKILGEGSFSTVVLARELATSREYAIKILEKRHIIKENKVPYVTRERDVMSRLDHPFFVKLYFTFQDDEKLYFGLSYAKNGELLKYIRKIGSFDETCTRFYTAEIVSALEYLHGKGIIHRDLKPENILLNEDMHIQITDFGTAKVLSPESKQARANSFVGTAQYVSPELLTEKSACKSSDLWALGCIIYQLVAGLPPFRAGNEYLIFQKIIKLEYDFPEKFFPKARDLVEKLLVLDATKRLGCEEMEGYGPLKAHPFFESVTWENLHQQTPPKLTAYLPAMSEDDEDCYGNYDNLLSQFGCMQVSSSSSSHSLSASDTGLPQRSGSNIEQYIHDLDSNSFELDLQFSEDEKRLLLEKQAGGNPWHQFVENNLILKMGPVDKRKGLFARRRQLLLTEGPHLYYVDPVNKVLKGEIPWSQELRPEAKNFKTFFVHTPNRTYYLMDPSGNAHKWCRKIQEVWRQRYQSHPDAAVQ

[2] = target: RAC-alpha serine/threonine-protein kinase (Homo sapiens, UniProt P31749); assay: Inhibition of AKT
RAC-alpha serine/threonine-protein kinase, sequence (P31749 whole entry): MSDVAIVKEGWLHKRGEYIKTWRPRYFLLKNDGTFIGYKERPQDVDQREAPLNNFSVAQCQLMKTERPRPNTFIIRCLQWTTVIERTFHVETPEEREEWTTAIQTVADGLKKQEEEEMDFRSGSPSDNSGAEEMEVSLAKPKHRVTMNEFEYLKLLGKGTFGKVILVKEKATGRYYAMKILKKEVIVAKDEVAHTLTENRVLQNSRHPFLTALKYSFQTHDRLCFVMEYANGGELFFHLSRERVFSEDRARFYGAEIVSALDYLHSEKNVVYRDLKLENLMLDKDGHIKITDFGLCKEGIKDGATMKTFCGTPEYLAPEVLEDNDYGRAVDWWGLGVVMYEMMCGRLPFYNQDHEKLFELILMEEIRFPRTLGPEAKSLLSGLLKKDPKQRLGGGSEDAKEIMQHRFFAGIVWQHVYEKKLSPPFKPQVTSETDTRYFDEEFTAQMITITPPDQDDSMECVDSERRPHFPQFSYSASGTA

[3] = Plasma concentration in nude mouse after 8 hrs at 50 mg/kg, po; assay type: ADME, organism-based; design: dose 50 mg/kg, route oral
[4] = system: Mus musculus; assay: Toxicity in nude mouse at 150 mg/kg, po; assay type: organism-based; design: dose 150 mg/kg, route oral; conditions: in vivo
[5] = Stability in nude mouse liver microsomes; assay type: ADME, Microsome
[6] = Plasma concentration in nude mouse after 24 hrs at 50 mg/kg, po; assay type: ADME, organism-based; design: dose 50 mg/kg, route oral
[7] = system: HT-29; assay: Antitumor activity against HT29 cells xenografted in nude mouse after 21 days at 150 mg/kg, po; assay type: functional, Homo sapiens
[8] = target: Proto-oncogene tyrosine-protein kinase Src (Homo sapiens, UniProt P12931); assay: Inhibition of Src
Proto-oncogene tyrosine-protein kinase Src, sequence (P12931 2-536 limits assumed): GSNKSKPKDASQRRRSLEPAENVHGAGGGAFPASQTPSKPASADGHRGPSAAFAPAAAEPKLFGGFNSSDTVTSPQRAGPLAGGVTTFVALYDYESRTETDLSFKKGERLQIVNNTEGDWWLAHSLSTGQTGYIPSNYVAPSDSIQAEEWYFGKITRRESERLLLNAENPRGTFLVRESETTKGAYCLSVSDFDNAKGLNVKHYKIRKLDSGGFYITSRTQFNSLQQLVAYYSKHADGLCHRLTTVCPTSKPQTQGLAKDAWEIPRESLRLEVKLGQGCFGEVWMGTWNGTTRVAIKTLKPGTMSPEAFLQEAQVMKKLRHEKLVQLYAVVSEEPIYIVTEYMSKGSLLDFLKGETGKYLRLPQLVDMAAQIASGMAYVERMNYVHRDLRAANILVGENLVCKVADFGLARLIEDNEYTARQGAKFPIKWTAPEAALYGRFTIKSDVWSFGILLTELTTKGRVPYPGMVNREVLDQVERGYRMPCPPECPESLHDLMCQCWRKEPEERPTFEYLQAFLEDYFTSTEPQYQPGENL

[9] = target: Vascular endothelial growth factor receptor 2 (Homo sapiens, UniProt P35968); assay: Inhibition of KDR
Vascular endothelial growth factor receptor 2, sequence (P35968 whole entry): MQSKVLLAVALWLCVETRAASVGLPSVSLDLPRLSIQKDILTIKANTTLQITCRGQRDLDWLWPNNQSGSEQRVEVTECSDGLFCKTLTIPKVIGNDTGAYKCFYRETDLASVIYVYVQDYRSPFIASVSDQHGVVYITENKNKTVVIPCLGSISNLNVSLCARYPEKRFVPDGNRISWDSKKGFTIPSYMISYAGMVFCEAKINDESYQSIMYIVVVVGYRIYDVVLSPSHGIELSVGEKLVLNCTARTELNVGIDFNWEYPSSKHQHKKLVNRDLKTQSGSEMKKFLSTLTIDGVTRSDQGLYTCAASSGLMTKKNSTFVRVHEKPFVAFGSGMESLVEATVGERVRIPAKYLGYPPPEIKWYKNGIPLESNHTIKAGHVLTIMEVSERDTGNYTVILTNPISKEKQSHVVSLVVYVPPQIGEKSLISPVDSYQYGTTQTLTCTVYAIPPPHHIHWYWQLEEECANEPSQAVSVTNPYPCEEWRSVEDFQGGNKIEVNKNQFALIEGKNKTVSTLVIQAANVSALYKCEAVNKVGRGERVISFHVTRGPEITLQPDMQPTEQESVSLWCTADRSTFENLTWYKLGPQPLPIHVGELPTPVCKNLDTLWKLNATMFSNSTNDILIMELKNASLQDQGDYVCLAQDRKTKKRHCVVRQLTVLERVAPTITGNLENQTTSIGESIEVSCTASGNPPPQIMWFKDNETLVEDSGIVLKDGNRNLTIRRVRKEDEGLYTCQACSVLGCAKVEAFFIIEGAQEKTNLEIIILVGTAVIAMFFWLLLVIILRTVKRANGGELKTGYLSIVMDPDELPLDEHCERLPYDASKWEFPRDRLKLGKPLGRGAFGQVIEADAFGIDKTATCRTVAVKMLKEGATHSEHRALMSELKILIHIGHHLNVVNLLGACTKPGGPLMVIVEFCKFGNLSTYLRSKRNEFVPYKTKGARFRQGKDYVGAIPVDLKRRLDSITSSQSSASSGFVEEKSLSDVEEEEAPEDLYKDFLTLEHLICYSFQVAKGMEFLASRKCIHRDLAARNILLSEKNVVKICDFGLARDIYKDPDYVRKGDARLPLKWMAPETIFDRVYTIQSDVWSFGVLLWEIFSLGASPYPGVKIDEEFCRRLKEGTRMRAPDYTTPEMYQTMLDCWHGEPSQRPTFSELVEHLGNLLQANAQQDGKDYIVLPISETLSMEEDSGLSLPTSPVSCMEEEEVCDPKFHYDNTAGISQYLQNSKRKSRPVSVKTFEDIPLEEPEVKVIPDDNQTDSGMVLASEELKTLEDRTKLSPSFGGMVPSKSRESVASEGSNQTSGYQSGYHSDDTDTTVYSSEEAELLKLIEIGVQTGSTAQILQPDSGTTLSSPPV

[10] = target: Cyclin-dependent kinase 4 (Homo sapiens, UniProt P11802); assay: Inhibition of CDK4
Cyclin-dependent kinase 4, sequence (P11802 whole entry): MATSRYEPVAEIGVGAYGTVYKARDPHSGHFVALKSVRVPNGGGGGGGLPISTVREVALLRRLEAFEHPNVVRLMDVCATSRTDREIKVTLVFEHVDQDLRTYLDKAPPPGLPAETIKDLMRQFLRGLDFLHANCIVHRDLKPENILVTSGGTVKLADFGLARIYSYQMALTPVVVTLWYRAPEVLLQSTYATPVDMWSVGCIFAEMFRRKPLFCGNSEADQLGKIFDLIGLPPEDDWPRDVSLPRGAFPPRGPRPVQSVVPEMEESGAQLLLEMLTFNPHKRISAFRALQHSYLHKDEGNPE

[11] = Plasma concentration in nude mouse after 4 hrs at 50 mg/kg, po; assay type: ADME, organism-based; design: dose 50 mg/kg, route oral
[12] = Permeability by PAMPA assay; assay type: ADME; conditions: read-out: permeability
[13] = Stability in rat liver microsomes after 30 min; assay type: ADME, Microsome; conditions: read-out: Stability
[14] = target: Epidermal growth factor receptor (Homo sapiens, UniProt P00533); assay: Inhibitory activity against EGFR
Epidermal growth factor receptor, sequence (P00533 whole entry): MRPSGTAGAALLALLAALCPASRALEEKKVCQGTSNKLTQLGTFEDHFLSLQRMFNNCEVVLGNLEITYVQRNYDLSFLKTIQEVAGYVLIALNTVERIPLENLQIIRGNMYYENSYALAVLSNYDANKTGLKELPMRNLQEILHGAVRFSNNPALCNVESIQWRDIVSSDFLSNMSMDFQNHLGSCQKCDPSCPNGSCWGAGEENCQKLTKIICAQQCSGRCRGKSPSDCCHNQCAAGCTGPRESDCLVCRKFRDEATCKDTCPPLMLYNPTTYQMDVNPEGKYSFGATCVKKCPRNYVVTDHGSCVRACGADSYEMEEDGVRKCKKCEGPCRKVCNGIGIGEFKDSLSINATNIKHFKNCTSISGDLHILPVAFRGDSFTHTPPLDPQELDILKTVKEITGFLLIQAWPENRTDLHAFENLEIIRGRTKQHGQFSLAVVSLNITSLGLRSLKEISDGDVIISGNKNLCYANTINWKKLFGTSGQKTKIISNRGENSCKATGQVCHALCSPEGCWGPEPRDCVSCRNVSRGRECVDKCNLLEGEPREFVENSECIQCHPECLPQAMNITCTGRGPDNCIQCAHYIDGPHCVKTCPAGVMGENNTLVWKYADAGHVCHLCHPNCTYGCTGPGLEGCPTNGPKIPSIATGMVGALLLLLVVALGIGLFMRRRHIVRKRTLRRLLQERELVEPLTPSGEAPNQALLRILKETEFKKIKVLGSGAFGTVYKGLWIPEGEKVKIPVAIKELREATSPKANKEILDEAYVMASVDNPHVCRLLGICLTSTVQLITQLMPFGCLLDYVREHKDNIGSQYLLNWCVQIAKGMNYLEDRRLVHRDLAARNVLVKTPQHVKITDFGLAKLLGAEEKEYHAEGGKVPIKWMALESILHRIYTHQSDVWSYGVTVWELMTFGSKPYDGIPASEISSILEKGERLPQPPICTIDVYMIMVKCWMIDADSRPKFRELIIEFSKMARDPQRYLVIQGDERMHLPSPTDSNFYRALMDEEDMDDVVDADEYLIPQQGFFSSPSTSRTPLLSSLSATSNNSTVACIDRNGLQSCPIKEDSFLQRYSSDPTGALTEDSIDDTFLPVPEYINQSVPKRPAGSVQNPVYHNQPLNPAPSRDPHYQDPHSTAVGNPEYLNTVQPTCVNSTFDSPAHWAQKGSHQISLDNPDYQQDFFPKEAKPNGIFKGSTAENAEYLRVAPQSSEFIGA

[15] = Solubility at pH 4.5; assay type: physicochemical; conditions: buffer

COc1cc(Nc2c(C#N)cnc3cc(-c4coc(CN5CCN(C)CC5)c4)c(OC)cc23)c(Cl)cc1Cl
IC50 [1]: > 1000 nM
IC50 [2]: > 1000 nM
concentration at 8 h [3]: 1030 ng/mL
Activity [4]: Non-toxic
half-life [5]: 32 min
concentration at 24 h [6]: 103 ng/mL
Activity [7]: 38%
IC50 [8]: 0.78 nM
IC50 [9]: > 1000 nM
IC50 [10]: > 1000 nM
concentration at 4 h [11]: 1140 ng/mL
Papp [12]: 2 ×10⁻⁶ cm/s
remaining at 0.5 h [13]: 72%
IC50 [14]: 230 nM
solubility [15]: 63 µg/mL (≈ 114 µM)
